We go through 43 molecules from patent US20220235065A1 (Epizyme, Inc., priority 2016, published 2022).

In general, IC50 refers to the concentration that gives 50% inhibition.

Counter-ions that a name gives are not always drawn.

The subject of this assay is H3K9me2 in MDA-MB-231 cells. As to the kind of experiment: MDA-MB-231 H3K9me2 in-cell western assay. Type of assay: cell-based. As to conditions: Homo sapiens, read-out: EHMT2 ICW (IC50 μM). In short, it runs like this: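 MDA-MB-231 cells (3,000/well) exposed to compound for two consecutive 48 h periods at 37 °C, then fixed and stained for H3K9me2, with DRAQ5 as DNA stain and infrared read at 700/800 nm. Percent inhibition was set between DMSO and UNC0638 control wells. IC50 came from triplicate dose–response fits with a four-parameter model, top 100%, bottom 0%.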
On to `CNc1cc(C)nc(Nc2ccc(OC)c(-c3cc(C4CC4)on3)c2)n1` [Compound 13], for which the IC50 was in the range of 1 to 10 µM.
The result for `CNc1cc(C)nc(Nc2ccc(OC)c(-n3cc(C4CC4)cn3)c2)n1` [Compound 14, 2-N-[3-(4-cyclopropyl-1H-pyrazol-1-yl)-4-methoxyphenyl]-4-N,6-dimethylpyrimidine-2,4-diamine] reads 1 to 10 µM.
For `CNc1cc(C)nc(Nc2ccc(OC)c(-n3cccn3)c2)n1` [Compound 15, 2-N-[4-methoxy-3-(1H-pyrazol-1-yl)phenyl]-4-N,6-dimethylpyrimidine-2,4-diamine; trifluoroacetic acid] the value was over 10 µM; for `CNc1cc(C)nc(Nc2cnc(OC)c(-n3ncc4c3CCNC4)c2)n1` [Compound 19], 1 to 10 µM.
Consider `CNc1cc(C)nc(Nc2ccc(OC)c(-c3nnc4n3CCNC4)c2)n1` [Compound 21], for which the IC50 is over 10 µM.
On to `CNc1cc(C)nc(Nc2ccc(OC)c(-n3cc4c(n3)CNCC4)c2)n1` [Compound 22, 2-N-(4-methoxy-3-[2H,4H,5H,6H,7H-pyrazolo[3,4-c]pyridin-2-yl]phenyl)-4-N,6-dimethylpyrimidine-2,4-diamine hydrochloride], for which the IC50 is over 10 µM.
Turning to `CNc1cc(C)nc(Nc2ccc(OC)c(-n3cc(CN)cn3)c2)n1` [Compound 23, 2-N-[3-[4-(aminomethyl)-1H-pyrazol-1-yl]-4-methoxyphenyl]-4-N,6-dimethylpyrimidine-2,4-diamine; trifluoroacetic acid], the IC50 was 1 to 10 µM.
On to `CNc1cc(C)nc(Nc2ccc(OC)c(-n3nccc3CN)c2)n1` [Compound 24], for which the IC50 was over 10 µM.
For the molecule `CNc1cc(C)nc(Nc2ccc(OC)c(-n3ncc4c3CCCC4)c2)n1` [Compound 26, 2-N-[4-methoxy-3-(4,5,6,7-tetrahydro-1H-indazol-1-yl)phenyl]-4-N,6-dimethylpyrimidine-2,4-diamine trifluoroacetic acid], the IC50 is over 10 µM.
Regarding `CNc1nc(Nc2ccc(OC)c(-n3cc4c(n3)CCNC4)c2)nc(C)c1F` [Compound 27, 5-fluoro-2-N-(4-methoxy-3-[2H,4H,5H,6H,7H-pyrazolo[4,3-c]pyridin-2-yl]phenyl)-4-N,6-dimethylpyrimidine-2,4-diamine trifluoroacetic acid], the IC50 fell in the range of 1 to 10 µM.
As to `CNc1nc(Nc2ccc(OC)c(-n3ncc4c3CCNC4)c2)nc(C)c1F` [Compound 28, 5-fluoro-2-N-(4-methoxy-3-[1H,4H,5H,6H,7H-pyrazolo[4,3-c]pyridin-1-yl]phenyl)-4-N,6-dimethylpyrimidine-2,4-diamine trifluoroacetic acid], the IC50 was in the range of 1 to 10 µM.
Regarding `CNc1cc(C)nc(Nc2ccc(OC)c(-c3c(C)nc4n3CCNC4)c2)n1` [Compound 30], the IC50 is over 10 µM.
For `CNc1cc(C)nc(Nc2ccc(OC)c(-c3nnc4n3CCN(C)C4)c2)n1` [Compound 31] the value was over 10 µM; for `CNc1cc(C)nc(Nc2ccc(OC)c(-n3ncc4c3CCCN4)c2)n1` [Compound 32], over 10 µM; for `CNc1cc(C)nc(Nc2ccc(OC)c(-c3cccc4[nH]ccc34)c2)n1` [Compound 33, 2-N-[3-(1H-indol-4-yl)-4-methoxyphenyl]-4-N,6-dimethylpyrimidine-2,4-diamine hydrochloride], over 10 µM.
For `CNc1cc(C)nc(Nc2ccc(OC)c(-n3ncc4cnccc43)c2)n1` [Compound 35, 2-N-(4-methoxy-3-[1H-pyrazolo[4,3-c]pyridin-1-yl]phenyl)-4-N,6-dimethylpyrimidine-2,4-diamine; trifluoroacetic acid], the IC50 is 1 to 10 µM.
For `CNc1cc(C)nc(Nc2ccc(OC)c(-n3ncc4ccncc43)c2)n1` [Compound 36] the value was over 10 µM; for `CNc1cc(C)nc(Nc2ccc(OC)c(-c3cccc4[nH]ncc34)c2)n1` [Compound 37, 2-N-[3-(1H-indazol-4-yl)-4-methoxyphenyl]-4-N,6-dimethylpyrimidine-2,4-diamine; trifluoroacetic acid], over 10 µM; for `CNc1cc(C)nc(Nc2ccc(OC)c(-c3nc4cnccn4n3)c2)n1` [Compound 38], over 10 µM.
On to `CNc1cc(C)nc(Nc2ccc(OC)c(-c3c(C)nc4cnccn34)c2)n1` [Compound 39], for which the half-inhibitory concentration (IC50) is over 10 µM.
The result for `CCc1ccc(Nc2nc(C)cc(NC)n2)cc1C(=O)Nc1cccnc1` [Compound 244] reads over 10 µM; that for `CNc1cc(C)nc(Nc2ccc(Cl)c(C(=O)Nc3ccnnc3)c2)n1` [Compound 245], over 10 µM; that for `CNc1cc(C)nc(Nc2ccc(Cl)c(C(=O)Nc3nccs3)c2)n1` [Compound 246], 1 to 10 µM.
For `Cc1cc(NC2CCNCC2)ncc1-c1cc2[nH]ccc2cn1` [Compound 247], the IC50 is over 10 µM.
As to `CNc1cc(C)nc(Nc2ccc(Cl)c(C(=O)Nc3cnccn3)c2)n1` [Compound 251], the IC50 was 1 to 10 µM.
Take `CNc1cc(C)nc(Nc2ccc(Cl)c(-c3cc4[nH]ccc4cn3)c2)n1` [Compound 255]: the IC50 lay in the range of 0.1 to 1 µM.
For `CNc1cc(C)nc(Nc2ccc(C)c(-c3cc4[nH]ccc4cn3)c2)n1` [Compound 256] the value was 0.1 to 1 µM.
Take `CNc1nc2cc(-c3cc4[nH]ccc4cn3)c(C)cc2n1C` [Compound 257]: the IC50 is 1 to 10 µM.
Take `CNc1cc(C)nc(Nc2ccc(Cl)c(C(=O)Nc3ncccn3)c2)n1` [Compound 258]: the IC50 was in the range of 1 to 10 µM.
On to `CNc1cc(C)nc(Nc2ccc(Cl)c(C(=O)Nc3ccncn3)c2)n1` [Compound 259], for which the IC50 is over 10 µM.
Regarding `CNc1cc(C)nc(Nc2ccc(Cl)c(-c3cc4c(cn3)CC(=O)N4)c2)n1` [Compound 260], the IC50 was over 10 µM.
As for `CNCc1cnn(-c2cc(Nc3nc(C)cc(NC)n3)ccc2Cl)c1` [Compound 262, N2-(4-chloro-3-(4-((methylamino)methyl)-1H-pyrazol-1-yl)phenyl)-N4,6-dimethylpyrimidine-2,4-diamine], the IC50 is under 0.1 µM.
On to `CCc1ccc(Nc2nc(C)cc(NC)n2)cc1-c1cc2ccncc2[nH]1` [Compound 269], for which the IC50 was in the range of 0.1 to 1 µM.
As to `CNc1cc(C)nc(Nc2ccc(C)c(-c3[nH]c4cnccc4c3C#N)c2)n1` [Compound 271], the IC50 is over 10 µM.
Take `CNc1cc(C)nc(Nc2ccc(C)c(-c3cc4ccccc4[nH]3)c2)n1` [Compound 274]: the IC50 is over 10 µM.
Consider `CCNc1c[nH]c(=O)c(-c2cc(Nc3nc(C)cc(NC)n3)ccc2C)c1` [Compound 276], for which the IC50 was in the range of 1 to 10 µM.
For the molecule `CNc1nc2cc(-c3cc4ccncc4[nH]3)c(C)cc2n1C` [Compound 278], the IC50 is 0.1 to 1 µM.
For `CNc1cc(C)nc(Nc2ccc(C)c(-c3nc4ccncc4[nH]3)c2)n1` [Compound 279], the 50% inhibitory concentration (IC50) lay in the range of 1 to 10 µM.
The result for `CNc1cc(C)nc(Nc2ccc(C)c(C(=O)Nc3cscn3)c2)n1` [Compound 280] reads over 10 µM; that for `CNc1cc(C)nc(Nc2ccc(C)c(-n3cc4cnccc4n3)c2)n1` [Compound 282], under 0.1 µM; that for `CNCc1cnn(-c2cc(Nc3nc(C)cc(NC)n3)ccc2OC)c1` [Compound 285], under 0.1 µM.
Turning to `CNCc1cnn(-c2cc(Nc3nc(C)cc(NC)n3)ccc2C)c1` [Compound 286, N4,6-dimethyl-N2-(4-methyl-3-(4-((methylamino)methyl)-1H-pyrazol-1-yl)phenyl)pyrimidine-2,4-diamine], the IC50 was under 0.1 µM.
With `CNc1cc(C)nc(Nc2ccc(C)c(C(=O)Nc3cnccn3)c2)n1` [Compound 287], the half-inhibitory concentration (IC50) is 1 to 10 µM.
